Literature values in patent US20240285563A1, “USE OF (S)-3-AMINO-4-(DIFLUOROMETHYLENYL) CYCLOPENT-1-ENE-1-CARBOXYLIC ACID IN THE TREATMENT OF RHEUMATOID ARTHRITIS” (Ovid Therapeutics Inc., priority 2023, published 2024).

How the values were obtained:
[1] = tested on: aspartate aminotransferase (Asp-AT)
[2] = tested on: alanine aminotransferase (Ala-AT)
OAT = target: T1, OAT (Homo sapiens, UniProt P04181)
T1 sequence (P04181 36-439 limits assumed): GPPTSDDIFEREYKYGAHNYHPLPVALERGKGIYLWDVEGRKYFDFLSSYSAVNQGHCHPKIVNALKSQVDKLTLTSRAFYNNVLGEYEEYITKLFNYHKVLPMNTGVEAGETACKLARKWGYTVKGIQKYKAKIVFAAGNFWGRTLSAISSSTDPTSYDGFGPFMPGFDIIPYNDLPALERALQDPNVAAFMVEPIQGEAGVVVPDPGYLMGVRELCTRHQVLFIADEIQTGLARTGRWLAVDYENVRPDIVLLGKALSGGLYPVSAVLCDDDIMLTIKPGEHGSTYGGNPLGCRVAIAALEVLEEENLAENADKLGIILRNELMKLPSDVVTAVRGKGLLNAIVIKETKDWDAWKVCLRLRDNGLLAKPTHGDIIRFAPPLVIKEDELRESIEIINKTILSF

IC50 ([1]; very weak reversible inhibitor) | IC50 ([2]; very weak reversible inhibitor) | times more efficient an inactivator of OAT than CPP-115 (OAT; ratio of kinact/KI versus CPP-115) | Compound | inactivation or inhibition of off-target enzyme [1] | inactivation or inhibition of off-target enzyme [2] | Ki (OAT)
– | – | – | N[C@H]1C[C@@H](C(=O)O)CC1=C(F)F [CPP-115, (1S,3S)-3-amino+difluoromethylenyl-1-cyclopentanoic acid, reference compound] | not to inactivate or inhibit | not to inactivate or inhibit | 116 µM
> 4000 µM | > 4000 µM | 9.0 times | N[C@H]1C=C(C(=O)O)CC1=C(F)F [OV329, (S)-3-amino-4-(difluoromethylenyl)cyclopent-1-ene-1-carboxylic acid] | – | – | 3.3 µM
